# Measured values taken from patent US20020076401A1, “Heat shock protein inducing factor and method for its in-situ generation from an inactive form” (priority 2000, published 2002).
# Where a SMILES comes first, the peptide text is derived from it. The star is where a group is joined. Cbz = O=C(OCc1ccccc1)*
# Legend:
# [1] = test system: Hsp72 expression in old cells; conditions: cited from earlier work
# [2] = test system: HSP-inducing factor in blood serum and ascites fluid; assay: In-vitro activation of HSP-inducing factor by sodium periodate; format: cell-based, mouse
# Protocol: To activate HSP-inducing factor, 200 mM solution of sodium periodate in physicological saline (solutions of sodium periodate in water or in 50 mM sodium acetate pH 5.0 work equally well) was added to aliquots of serum or of ascites fluid to final concentration of 1 mM to 20 mM (at these concentrations and in conditions outlined below, sodium periodate oxidizes only sugar groups). Mixtures were incubated at room temperature in darkness for 1 hour. Following the incubation sodium periodate was quenched by the addition of solution of potassium borohydride in physiological saline to a final concentration equal to 1.5 times excess of the concentration of sodium periodate. The completeness of quenching was verified by using potassium iodide-starch test paper.
# (§1) Aliquots of serum, treated as described above, were added to cultures of CH1 cells and cultures of primary human fibroblasts at 20% of final volume. Cultures were incubated for 16 hours at regular tissue culture conditions (37° C., 5% CO2). Following the incubation, cells were collected, washed, and lysed. Lysates were subjected to polyacrylamide gel electrophoresis (PAGE), transferred to nitrocellulose membrane (Awestem transfer≅), and Hsp70 was detected by immunoblotting with Hsp70-specific monoclonal antibody (Spa810) and visualized by ECL technique.
# [3] = test system: HSP-inducing factor in serum; assay: In-vivo activation of HSP-inducing factor by single injection of periodate; design: species or system mice
# Protocol: as §1
# Mice were injected with either intraperitoneally (IP) or subcutaneously (SQ) with 0.2 ml of sodium periodate solution in physiological saline, or with 0.2 ml of physiological saline alone.
# Four different concentrations of sodium periodate were used: 15 mM, 30 mM, 60 mM, and 120 mM. In parallel experiments the same concentrations of periodate but prequenched with potassium borohydride as described above were injected. After 2 hours blood samples were collected from tail and serum was used in the assay described above.
# [4] = test system: HSP-inducing factor in serum; assay: In-vivo activation of HSP-inducing factor by prolonged release of periodate; design: species or system mouse; conditions: 500 mM released over 72 hours, SQ pump; detected after 3 hours and maintained
# Protocol: In another type of experiment […] of either 500 mM solution of sodium periodate in physiological saline or physiological saline alone were released over a period of 72 hours using microosmotic pumps implanted SQ. In parallel experiments the same concentration of periodate but prequenched with potassium borohydride as described above was administered. After different time periods blood samples were collected from tail and serum was used in the assay described above.
# [5] = test system: Hsp70-inducing activity in serum; assay: Periodate treatment of serum from differently stressed mice; format: cell-based; conditions: in vitro periodate treatment
Structure (SMILES),toxicity [1],Hsp72 synthesis ([1]; old cells),levels of active factor versus periodate concentration ([2]; assessed by Hsp70 in cell lysates),"activation of HSP-inducing factor ([2]; blood serum and ascites fluid, 1 mM to 20 mM, 1 hour, room temperature)","Hsp70 in cell lysate relative to cells incubated with untreated serum ([2]; maximal sodium periodate concentration, serum at 20%, 16 hours)","levels of HSP in cell lysates relative to cells incubated with untreated serum ([3]; maximal sodium periodate concentration, single injection)","levels of HSP-inducing factor in serum ([3]; mice, IP or SQ 0.2 ml of 15-120 mM, 2 hours)","levels of HSP-inducing factor versus periodate concentration ([3]; mice, single injection)",levels of HSP-inducing factor in serum [4],Hsp70-inducing activity of serum from differently stressed mice after periodate treatment [5]
CC(C)C[C@@H](C=O)NC(=O)[C@H](CC(C)C)NC(=O)[C@H](CC(C)C)NC(=O)OCc1ccccc1 [MG132] (Cbz-Leu-Leu-Leu-aldehyde),highly toxic,induces Hsp72 synthesis via an alternative heat shock transcription factor HSF2,,,,,,,,
[O-][I+3]([O-])([O-])O [sodium periodate],,,directly proportional to concentrations of sodium periodate used,strongly activated,at least 50 times,about 10 times,substantially increased levels of HSP-inducing factor,directly proportional to the concentrations of periodate used,Substantially increased levels of HSP-inducing factor,further increased in all samples to a level identical to that seen in periodate-activated serum from non-stressed mice
